In brackets after ≈: the same amount, converted by molar mass.
Legend:
Staphylococcus aureus [1] = assay: Bactericidal activity against Staphylococcus aureus ATCC 25923 incubated for 18 hrs by broth microdilution method; type: functional
[2] = Self-assembly property of compound in water assessed as beta-sheet content; type: physicochemical
Erythrocyte = assay: Hemolytic activity in mouse erythrocytes assessed as concentration required to cause 10% hemolysis incubated for 1 hr; type: toxicity, cell-based
Klebsiella pneumoniae [3] = assay: Bactericidal activity against Klebsiella pneumoniae ATCC 700603 incubated for 18 hrs by broth microdilution method; type: functional
Staphylococcus aureus [4] = assay: Antibacterial activity against Staphylococcus aureus at 2 times MIC preincubated for 1 hr with trypsin followed by enzyme inactivation and bacterial addition and measured after 18 hrs; type: functional; conditions: time 19 hrs
Pseudomonas aeruginosa [5] = assay: Bactericidal activity against Pseudomonas aeruginosa ATCC 27853 incubated for 18 hrs by broth microdilution method; type: functional
[6] = Retention time of the compound; type: physicochemical
Staphylococcus aureus [7] = assay: Antibacterial activity against Staphylococcus aureus at 2 times MIC preincubated for 1 hr with chymotrypsin followed by enzyme inactivation and bacterial addition and measured after 18 hrs; type: functional; conditions: time 19 hrs
[8] = tested on: Staphylococcus epidermidis; assay: Bactericidal activity against Staphylococcus epidermidis ATCC 12228 incubated for 18 hrs by broth microdilution method; type: functional
Escherichia coli [9] = assay: Antibacterial activity against Escherichia coli ATCC 25922 incubated for 18 hrs by broth microdilution method; type: functional
[10] = Self-assembly property of compound in 50% TFE assessed as beta-sheet content; type: physicochemical
Staphylococcus aureus [11] = assay: Antibacterial activity against Staphylococcus aureus ATCC 25923 incubated for 18 hrs by broth microdilution method; type: functional
Pseudomonas aeruginosa [12] = assay: Antibacterial activity against Pseudomonas aeruginosa ATCC 27853 incubated for 18 hrs by broth microdilution method; type: functional
[13] = tested on: Staphylococcus epidermidis; assay: Antibacterial activity against Staphylococcus epidermidis ATCC 12228 incubated for 18 hrs by broth microdilution method; type: functional
[14] = Self-assembly property of compound in PBS assessed as beta-sheet content; type: physicochemical; conditions: buffer
Escherichia coli [15] = assay: Bactericidal activity against Escherichia coli ATCC 25922 incubated for 18 hrs by broth microdilution method; type: functional
Bacillus subtilis [16] = assay: Bactericidal activity against Bacillus subtilis ATCC 23857 incubated for 18 hrs by broth microdilution method; type: functional
Bacillus subtilis [17] = assay: Antibacterial activity against Bacillus subtilis ATCC 23857 incubated for 18 hrs by broth microdilution method; type: functional
Klebsiella pneumoniae [18] = assay: Antibacterial activity against Klebsiella pneumoniae ATCC 700603 incubated for 18 hrs by broth microdilution method; type: functional
[19] = Self-assembly property of compound in PBS assessed as beta-sheet nanofibers formation incubated for 1 hr by Thioflavin T based fluorescence spectrophotometer analysis; type: physicochemical; conditions: buffer, dose 0.5-1.5 µM

Row | Compound | Activity [2] [%] | Retention_time [6] [min] | MIC (Escherichia coli [9]) [µM] | Activity [10] [%] | MIC (Staphylococcus aureus [11]) [µM] | MIC (Pseudomonas aeruginosa [12]) [µM] | MIC [13] [µM] | Activity [14] [%] | MIC (Bacillus subtilis [17]) [µM] | MIC (Klebsiella pneumoniae [18]) [µM] | Activity [19] | MBC (Staphylococcus aureus [1]) [µM] | MHC (Erythrocyte) [µM] | MBC (Klebsiella pneumoniae [3]) [µM] | Activity (Staphylococcus aureus [4]) [%] | MBC (Pseudomonas aeruginosa [5]) [µM] | Activity (Staphylococcus aureus [7]) [%] | MBC [8] [µM] | MBC (Escherichia coli [15]) [µM] | MBC (Bacillus subtilis [16]) [µM]
1 | NCCCC[C@@H](N)C(=O)N[C@H](Cc1c[nH]c2ccccc12)C(=O)N[C@H](CCCCN)C(=O)N[C@H](Cc1c[nH]c2ccccc12)C(=O)N[C@H](CCCCN)C(=O)NCC(=O)NCC(=O)N[C@H](CCCCN)C(=O)N[C@H](Cc1c[nH]c2ccccc12)C(=O)N[C@H](CCCCN)C(=O)N[C@H](Cc1c[nH]c2ccccc12)C(=O)N[C@H](CCCCN)C(N)=O |  | 11.03 | 8 (≈ 13.2 µg/mL) |  | 16 (≈ 26.3 µg/mL) | 64 (≈ 105 µg/mL) | 4 (≈ 6.58 µg/mL) |  | 2 (≈ 3.29 µg/mL) | 16 (≈ 26.3 µg/mL) |  | 32 (≈ 52.6 µg/mL) | > 512 | 64 (≈ 105 µg/mL) | 100 | 128 (≈ 211 µg/mL) | 100 | 8 (≈ 13.2 µg/mL) | 8 (≈ 13.2 µg/mL) | 8 (≈ 13.2 µg/mL)
2 | NCCCC[C@@H](N)C(=O)N[C@H](Cc1c[nH]c2ccccc12)C(=O)N[C@H](CCCCN)C(=O)N[C@H](Cc1c[nH]c2ccccc12)C(=O)N[C@H](CCCCN)C(=O)N1CCC[C@@H]1C(=O)N1CCC[C@H]1C(=O)N[C@H](CCCCN)C(=O)N[C@H](Cc1c[nH]c2ccccc12)C(=O)N[C@H](CCCCN)C(=O)N[C@H](Cc1c[nH]c2ccccc12)C(=O)N[C@H](CCCCN)C(N)=O |  | 11.03 | 8 (≈ 13.8 µg/mL) |  | 32 (≈ 55.2 µg/mL) | 4 (≈ 6.9 µg/mL) | 4 (≈ 6.9 µg/mL) |  | 4 (≈ 6.9 µg/mL) | 16 (≈ 27.6 µg/mL) |  | 64 (≈ 110 µg/mL) | > 512 | 16 (≈ 27.6 µg/mL) | 100 | 32 (≈ 55.2 µg/mL) | 100 | 8 (≈ 13.8 µg/mL) | 8 (≈ 13.8 µg/mL) | 8 (≈ 13.8 µg/mL)
3 | NCCCC[C@@H](N)C(=O)N[C@H](Cc1c[nH]c2ccccc12)C(=O)N[C@H](CCCCN)C(=O)N[C@H](Cc1c[nH]c2ccccc12)C(=O)N[C@H](CCCCN)C(=O)N[C@@H](CC(N)=O)C(=O)NCC(=O)N[C@H](CCCCN)C(=O)N[C@H](Cc1c[nH]c2ccccc12)C(=O)N[C@H](CCCCN)C(=O)N[C@H](Cc1c[nH]c2ccccc12)C(=O)N[C@H](CCCCN)C(N)=O |  | 11.03 | 8 (≈ 13.6 µg/mL) |  | 16 (≈ 27.2 µg/mL) | 32 (≈ 54.5 µg/mL) | 4 (≈ 6.81 µg/mL) |  | 2 (≈ 3.4 µg/mL) | 64 (≈ 109 µg/mL) |  | 64 (≈ 109 µg/mL) | > 512 | 128 (≈ 218 µg/mL) | 100 | 128 (≈ 218 µg/mL) | 100 | 8 (≈ 13.6 µg/mL) | 8 (≈ 13.6 µg/mL) | 8 (≈ 13.6 µg/mL)

Continued by falling MIC (Escherichia coli [9]), values first:

Row | Activity [2] [%] | Retention_time [6] [min] | MIC (Escherichia coli [9]) [µM] | Activity [10] [%] | MIC (Staphylococcus aureus [11]) [µM] | MIC (Pseudomonas aeruginosa [12]) [µM] | MIC [13] [µM] | Activity [14] [%] | MIC (Bacillus subtilis [17]) [µM] | MIC (Klebsiella pneumoniae [18]) [µM] | Activity [19] | Compound | MBC (Staphylococcus aureus [1]) [µM] | MHC (Erythrocyte) [µM] | MBC (Klebsiella pneumoniae [3]) [µM] | Activity (Staphylococcus aureus [4]) [%] | MBC (Pseudomonas aeruginosa [5]) [µM] | Activity (Staphylococcus aureus [7]) [%] | MBC [8] [µM] | MBC (Escherichia coli [15]) [µM] | MBC (Bacillus subtilis [16]) [µM]
4 | 84.3 | 11.212 | 8 (≈ 13.5 µg/mL) | 39.2 | 32 (≈ 53.9 µg/mL) | 64 (≈ 108 µg/mL) | 4 (≈ 6.74 µg/mL) | 80.2 | 2 (≈ 3.37 µg/mL) | 32 (≈ 53.9 µg/mL) |  | NCCCC[C@@H](N)C(=O)N[C@H](Cc1c[nH]c2ccccc12)C(=O)N[C@H](CCCCN)C(=O)N[C@H](Cc1c[nH]c2ccccc12)C(=O)N[C@H](CCCCN)C(=O)N1CCC[C@H]1C(=O)NCC(=O)N[C@H](CCCCN)C(=O)N[C@H](Cc1c[nH]c2ccccc12)C(=O)N[C@H](CCCCN)C(=O)N[C@H](Cc1c[nH]c2ccccc12)C(=O)N[C@H](CCCCN)C(N)=O | 32 (≈ 53.9 µg/mL) | > 512 | 64 (≈ 108 µg/mL) | 100 | 128 (≈ 216 µg/mL) | 100 | 8 (≈ 13.5 µg/mL) | 16 (≈ 27 µg/mL) | 8 (≈ 13.5 µg/mL)
5 | 63.8 | 14.321 | 8 (≈ 14.4 µg/mL) | 30.1 | 4 (≈ 7.2 µg/mL) | 8 (≈ 14.4 µg/mL) | 4 (≈ 7.2 µg/mL) | 63 | 2 (≈ 3.6 µg/mL) | 8 (≈ 14.4 µg/mL) | Not Active | NCCCC[C@@H](NC(=O)[C@H](N)Cc1c[nH]c2ccccc12)C(=O)N[C@H](Cc1c[nH]c2ccccc12)C(=O)N[C@H](CCCCN)C(=O)N[C@H](Cc1c[nH]c2ccccc12)C(=O)N1CCC[C@H]1C(=O)NCC(=O)N[C@H](Cc1c[nH]c2ccccc12)C(=O)N[C@H](CCCCN)C(=O)N[C@H](Cc1c[nH]c2ccccc12)C(=O)N[C@H](CCCCN)C(=O)N[C@H](Cc1c[nH]c2ccccc12)C(N)=O | 8 (≈ 14.4 µg/mL) | 46 | 8 (≈ 14.4 µg/mL) | 100 | 32 (≈ 57.6 µg/mL) | 100 | 4 (≈ 7.2 µg/mL) | 8 (≈ 14.4 µg/mL) | 8 (≈ 14.4 µg/mL)

Source: ChEMBL document CHEMBL5543109, “Novel β-Hairpin Antimicrobial Peptide Containing the β-Turn Sequence of -NG- and the Tryptophan Zippers Facilitate Self-Assembly into Nanofibers, Exhibiting Excellent Antimicrobial Performance” (J Med Chem, 2024)
